In US11179385B2 (THE TRUSTEES OF THE UNIVERSITY OF PENNSYLVANIA, priority 2015, dated 2021):

Assays:
[1] = system: B16-F10 melanoma cells in CD8 depleted C57 mice; assay: Resiquimod gel in CD8 depleted C57 mice with B16-F10 melanoma; format: in vivo, mouse
Experimental: (§1) Once these mice developed palpable tumors, resiquimod treatment was administered twice a week. […] CD8 depletion was achieved using anti-CD8 antibody. […]

T cells from spleen = assay: Cytokine release by T cells from spleen after stimulation; format: cell-based, mouse; details: resiquimod treated T cells from spleen
Experimental: as §1

[2] = system: melanoma in Tyr::creER, BRAF^ca, Pten^lox/lox mice; assay: Resiquimod in combination with anti-PD1 therapy in Tyr::creER, BRAFca, Ptenlox/lox mice; format: in vivo, mouse; details: 0.2% resiquimod twice a week for 6 weeks; anti-PD1 200 μg i.p. twice a week for 5 weeks
Source text: FIGS. 7A-7G. […] FIG. 7A) Treatment scheme. […] FIG. 7F) Effect of therapies on melanoma growth (n=5 each group). FIG. 7G) Effect of therapies on lymph node metastasis. *indicates p<0.05. **indicates p<0.01. Bars indicate 6 mm.

[3] = system: B16-F10 melanoma cells in C57BL/6J mice; assay: Topical resiquimod gel in the B16 melanoma model; format: in vivo, mouse
Source text: FIGS. 5A-5E. […] FIG. 5A) Treatment scheme. […] Arrow points to the inflammatory cells. FIG. 5E) Fold changes in cytokine and chemokine mRNA expression in the tumor tissues from treated mice compared to control mice. *indicates p<0.05. Bars in d indicate 25 μm.
Tumor tissues were processed and we measured cytokine and chemokine mRNA expression in the tumor using qRT-PCR.

[4] = system: melanoma in Tyr::creER, BRAF^ca, Phd2^lox/lox mice; assay: Topical resiquimod on melanoma progression in Tyr::creER, BRAFca, Phd2lox/lox mice; format: in vivo, mouse; details: topical 0.2% twice a week for 6 weeks
Source text: FIGS. 2A-2L. […] FIG. 2A) Treatment scheme. FIG. 2B) Large tumor in a mouse treated with vehicle (n=10). FIG. 2C) Underside of skin filled with tumor. FIGS. 2D and 2E) Histology of melanoma in a control mouse. The dermis is filled with tumor cells. […] FIG. 2G) Underside of skin cleared of tumor. FIG. 2H) Histology of skin in a treated mouse, normal appearing. FIG. 2I) Macrophages with pigment are present in the dermis in a treated mouse. Arrow points to macrophages. FIG. 2J)Tumor growth curve. FIG. 2K) In situ melanoma in control mice. Arrows point to the tumor cells in the epidermis and hair follicle. I) Normal appearing epidermis in treated mice. *indicates p<0.05. Bars in b, c, f and g indicate 6 mm. Bars in d, e, h and I, indicate 200 μm. Bars in k and l indicate 10 μm.
The Tyr:creER, BRAF^ca, phd2^lox/lox mouse melanoma model was developed in Dr. Xu's lab. Melanoma can be induced with 100% penetrance using topical 4-HT. Lymph node metastasis is frequent in these mice. […] The melanoma in control mice grew and the tumor became very big at day 180 (FIG. 2B). These mice were sacrificed. The underside of skin was occupied completely by tumor (FIG. 2C). Histologically, the dermis was filled entirely by melanoma cells (FIG. 2D and FIG. 2E). […] Histologically, dermal melanoma had regressed (FIG. 2H) and numerous macrophages with pigment were present in the dermis (FIG. 2I), indicating melanoma has regressed. None of the treated mice developed lymph node metastasis.

[5] = Stability and solubility of resiquimod in ethanol:PBS topical formulation (HPLC); format: physicochemical; details: 50:50 ethanol:pbs topical formulation aged for 2 weeks
[6] = system: melanoma in Tyr::creER, BRAF^ca, Pten^lox/lox mice; assay: Topical resiquimod gel on melanoma progression in Tyr::creER, BRAFca, Ptenlox/lox mice; format: in vivo, mouse
Source text: FIGS. 3A-3I. […] FIG. 3A) Treatment scheme. FIG. 3B) Representative image of a mouse with control treatment (n=15). […] FIG. 3D) Histology of melanoma in a control mouse. […] FIG. 3E) Histology of melanoma in a treated mouse. […] Bars indicate 6 mm in FIG. 3B and FIG. 3C, 400 μm in FIG. 3D and FIG. 3E and 50 μm in FIG. 3H and FIG. 3I.
FIGS. 4A-4I. […] FIG. 4A) Treatment scheme. […] All measurement was compared to the control. *indicates p<0.05.
Tumor and spleen tissues were processed and multicolor flow cytometry analysis was performed.

[7] = system: B16-F10 melanoma cells in RAG-1-deficient mice; assay: Resiquimod gel in RAG-1-deficient mice with B16-F10 melanoma; format: in vivo, mouse
Experimental: as §1

[8] = system: T cell activation; cytokine induction; details: cited from earlier work
[9] = system: nevus-like pigmented tumors in Tyr::creER, BRAF^ca mice; assay: Topical resiquimod gel on pigmented tumor progression in Tyr::creER, BRAFca mice (nevus model); format: in vivo, mouse
Experimental: FIGS. 1A-1I. […] FIG. 1A) Treatment scheme. […] FIG. 1D) Pigmented lesion in a mouse before treatment. […] FIG. 1F) Histology of tumor treated with vehicle. […] Bars in b-e indicate 6 mm. Bars in f-h indicate 200 μm.
A majority of nevi and melanomas contain BRAF mutations, particularly the BRAFV600E mutation.
Mice treated with blank topical gel were used as controls. […] Tumor diameters were measured using calipers every three days.

[10] = 0.2% resiquimod gel twice a week
[11] = qRT-PCR, compared to control mice
[12] = treated 3 weeks, flow cytometry of tumor

CCOCc1nc2c(N)nc3ccccc3c2n1CC(C)(C)O [resiquimod, 1-[4-amino-2-(ethoxymethyl)imidazo[4,5-c]quinolin-1-yl]-2-methylpropan-2-ol]
effect of resiquimod on survival curves ([1]; CD8-depleted mice): abolished
effect on melanoma ([1]; CD8 T cell depleted mice (anti-CD8 antibody), resiquimod twice a week): little effect
expression of IFN-γ by T cells after stimulation (T cells from spleen): increased expression
lymph node metastasis (number of positive lymph nodes) [2]: significantly reduced
melanoma growth (tumor volume) [2]: significantly slowed melanoma growth
histology: inflammatory cells in the tumor [3, 10]: more inflammatory cells
lifespan (survival) of treated mice [3, 10]: prolonged the lifespan
melanoma growth [3, 10]: significantly slowed the melanoma growth
CCL2 mRNA expression in the tumor [3, 11]: increased
INF-γ mRNA expression in the tumor [3, 11]: increased
TNF-α mRNA expression in the tumor [3, 11]: increased
histology: dermal melanoma [4]: regressed
melanoma cells in the epidermis (in situ melanoma) [4]: disappeared after treatment
treated mice that developed lymph node metastasis [4]: None
tumor on underside of skin [4]: significantly less tumors
melanoma growth ([4]; started 140 days after induction): inhibited
solubility in base formulation [5]: soluble
melanoma growth (tumor volume) ([6]; resiquimod gel twice a week for 6 weeks vs control vehicle): significantly slowed melanoma growth
tumor thickness ([6]; treated 3 weeks): significantly thinner tumors
CD45+CD11B+F4/80-Ly6g high MDSCs in the tumor [6, 12]: decrease
PD1+CD8+ T cells [6, 12]: significantly increased
expression of granzyme B in CD8^- T cells [6, 12]: increased
intratumoral CD45+ inflammatory cells [6, 12]: significant increase
number of GranB+CD8+ T cells [6, 12]: increased
number of GranB+CD8+Ki-67+ T cells [6, 12]: increased
mice that developed lymph node metastasis ([6]; treated 3 weeks, sacrificed on treatment, control: all 5 mice): 2 of 5
positive lymph nodes per mouse with metastasis ([6]; treated 3 weeks, control 2-4 per mouse): 1
histology: infiltration of melanoma through skeletal muscle ([6]; twice a week for 6 weeks): did not infiltrate through the skeletal muscle
in situ melanoma in the epidermis ([6]; twice a week for 6 weeks): disappeared after treatment
lifespan (survival) of treated mice ([6]; twice a week for 6 weeks): prolonged the lifespan
effect on melanoma growth ([7]; RAG-1-deficient mice, resiquimod gel twice a week): little effect
effect of resiquimod on survival curves ([7]; Rag-1-deficient mice): abolished
induction of IFN-α, TNF-α, IL-1, IL-6, IL-8 and IL-12 compared with imiquimod [8]: more potent inducer
pigmented lesion growth (tumor diameter) ([9]; 0.2% resiquimod topical gel twice a week for six weeks vs blank gel): regressed
histology: pigmented tumor cells in the dermis ([9]; 0.2% topical gel twice a week for six weeks): disappeared
pigmented tumor cells in the epidermis ([9]; 0.2% topical gel twice a week for six weeks, data not shown): regressed completely
palpable pigmented lesion after treatment ([9]; different experiment, topical resiquimod for 1 month): disappeared after treatment
